The values below come from US20040009486A1, “Compositions and methods utilizing DNA polymerases” (priority 1999, published 2004).

In assay [1] the test system is primer:template. The assay can be described thus: Fidelity screen with rhodamine labeled non-complementary ddNTP. Format: biochemical. As to conditions: R110-labeled incorrect ddNTP. Here is the method:
Reactions (10 μl) contained 1 unit of enzyme in 1× reaction buffer, 15 nM primer template, 25 nM of unlabeled complementary ddNTP, and 25, 100, 500, or 1000 nM of rhodamine labeled non-complementary ddNTP in four separate reactions. The reactions were incubated in a Perkin-Elmer 9600 for 25 cycles as follows: 96° C. for 10 s, 50° C. for 5 s, and 60° C. for 30 s. The reactions were then quenched with ice-cold 0.2 M EDTA (final concentration) and the products were purified from unincorporated rhodamine labeled ddNTPs and analyzed as described above.
Fidelity was determined as the tendency of a DNA polymerase to incorporate the correct nucleotide in the presence of increasing amounts of a non-complementary nucleotide. These assays employed constant amounts of primer:template, an unlabeled complementary ddNTP and DNA polymerase, and various concentrations of a rhodamine-labeled non-complementary ddNTP, as described in the Experimental Protocol. The amount of misextended primers is plotted against the ratio of rhodamine-labeled incorrect ddNTP/unlabeled correct ddNTP (FIG. 18 panels A and B). We performed similar assays for all possible mispairs (Table IX).
To address these concerns, the insertion fidelity of the JDF-3 P410L/A485T and Taq F667Y mutants was compared. In the first set of fidelity assays, a constant amount of primer:template, an unlabeled complementary ddNTP, and increasing concentrations of R110-labeled non-complementary ddNTP was used (Materials and Methods). […] The amount of misextended primers was determined and plotted against the ratio of R110-labeled incorrect ddNTP/unlabeled correct ddNTP (FIG. 27, panels A and B). Similar assays for all 12 possible mispairs was performed (ddG:dT, ddT:dG, ddT:dC, ddC:dT, ddC:dA, ddA:dC, ddA:dG, ddG:dA, ddT:dT, ddC:dC, ddA:dA, ddG:dG). […] The other mispairs are formed less frequently, and at similar rates for the JDF-3 P410L/A485T and Taq F667Y mutants (data not shown).
Fidelity assays using labeled ddNTPs (10 μl) contained 1 unit DNA polymerase in 1× reaction buffer, 15 nM primer: template, 25 nM of unlabeled complementary ddNTP, and 25, 100, 500, or 1000 nM of rhodamine-labeled non-complementary ddNTP in four separate reactions. The reactions were incubated in a Perkin-Elmer 9600 for 25 cycles as follows: 96° C. for 10 s, 50° C. for 5 s, and 60° C. for 30 s. The reactions were quenched and analyzed as above.

For assay [2] the following is noted: literature values; cited from earlier work.
Assay [3] deals with pFL-35:pBluescript. The assay can be described thus: Fidelity assay with unlabeled ddNTPs. Format: biochemical. Particulars: compared to JDF-3 P410L/A485T. Here is the method: A second set of fidelity assays was conducted to address the contribution of rhodamine dye to high ddG:dT and ddT:dC misinsertion frequency. A fluorescently labeled primer (2.5 nM pFL35) opposite dT in the template strand was extended, in reactions containing either correct (ddA) or incorrect (ddG) unlabeled ddNTPs (at concentrations of 1.25 nM to 10 nM) ([…]). Similar experiments were performed in which primer extension occured opposite dC in the template strand, in the presence of correct (ddG) or incorrect (ddT) unlabeled ddNTPs (FIG. 28 panel B). Incorporation of ddNMP at the 3′-end of the primer was detected as a shift in primer mobility.
Fidelity assays using unlabeled ddNTPs (10 μl) contained 2.5 nM primer:template (pFL-35:pBluescript), 1 U DNA polymerase, and 1× reaction buffer. Complementary or non-complementary ddNTP was added to the reaction at concentrations of 0, 1.25, 10, 50, or 100 nM. The reactions were incubated in a Perkin-Elmer 9600 for 25 cycles as follows: 96° C. for 10 s, 50° C. for 5 s, and 60° C. for 30 s, and then analyzed as describe above.

Take “Taq F667Y: ThermoSequenase, Taq F667Y mutant DNA polymerase from Amersham Pharmacia Biotech”: in assay [1], the “ddG:dT mispair formation frequency, higher than JDF-3 P410L/A485T” value stood at 20 fold and the “ddT:dC mispair formation frequency, higher than JDF-3 P410L/A485T” value is reported as 3 fold. For the same substance, the “dideoxynucleotide incorporation relative to unmutated / wild type enzyme” value in assay [2] is reported as 3000-8000 fold. In addition, the “misincorporation of unlabeled ddNTPs” value in assay [3] was “greater tendency to misincorporate unlabeled ddG opposite dT, and unlabeled ddT opposite dC”.
